# Measurements reported in patent US5436246A, “Serotonin receptor agents” (priority 1993, dated 1995).
# Counter-ions that a name gives are not always drawn. Like-named read-outs stand apart in the source and are kept apart here.
# Tests used:
# [1] = Eur. J. Pharmacol. 144, 223 (1987); 158, 53 (1988); cited from earlier work
# [2] = Bielenberg et al., Stroke Supplement IV, 21 (1990); cited from earlier work
# [3] = Eur. J. Pharmacol. 180, 339 (1990); 182, 63 (1990); cited from earlier work
# [4] = Eide, Neuropharm. 31, 541 (1992); cited from earlier work
# 5HT1A receptor = target: T1, 5HT1A receptor (Rattus norvegicus, UniProt P19327); test: 5HT1A receptor binding affinity (procedure of Gozlan et al.)
# T1 sequence (P19327 1-422): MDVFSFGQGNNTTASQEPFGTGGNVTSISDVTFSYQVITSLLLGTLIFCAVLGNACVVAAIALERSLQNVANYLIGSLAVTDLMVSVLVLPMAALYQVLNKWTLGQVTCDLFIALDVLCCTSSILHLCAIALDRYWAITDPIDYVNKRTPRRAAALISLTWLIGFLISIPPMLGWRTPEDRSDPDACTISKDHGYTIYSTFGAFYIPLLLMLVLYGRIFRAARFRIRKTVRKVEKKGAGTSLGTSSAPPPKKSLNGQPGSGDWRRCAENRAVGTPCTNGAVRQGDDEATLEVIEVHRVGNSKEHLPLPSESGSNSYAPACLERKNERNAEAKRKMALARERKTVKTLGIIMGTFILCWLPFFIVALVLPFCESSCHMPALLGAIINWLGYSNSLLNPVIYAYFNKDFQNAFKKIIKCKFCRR
# Protocol: In the following examples, the compounds binding affinity for both the 5HT1A receptor and 5HT1D receptors is reported. The compounds affinity for the 5HT1D site was determined by the binding procedure of Peroutka et al as reported in European Journal of Pharmacology, Vol. 163 at pages 133-166 (1989). The compounds affinity for the 5HT1A receptor was determined by the procedure of Gozlan et al., as reported in Nature, Volume 305, at pages 140-142 (1983). Where multiple determinations of the binding affinity have been performed, the average is given followed by the number of determinations in parentheses. Also, the PA2 value for the saphenous vein preparation as described in this application is given, followed by the intrinsic (agonist) activity in parentheses, expressed as a percentage. [drawing 10] […]
# 5-HT1D receptors = 5-HT1D receptors (Canis lupus familiaris, UniProt P79250); design: species or system dog (canine)
# Protocol: In the following examples, the compounds binding affinity for both the 5HT1A receptor and 5HT1D receptors is reported. The compounds affinity for the 5HT1D site was determined by the binding procedure of Peroutka et al as reported in European Journal of Pharmacology, Vol. 163 at pages 133-166 (1989). The compounds affinity for the 5HT1A receptor was determined by the procedure of Gozlan et al., as reported in Nature, Volume 305, at pages 140-142 (1983). Where multiple determinations of the binding affinity have been performed, the average is given followed by the number of determinations in parentheses. Also, the PA2 value for the saphenous vein preparation as described in this application is given, followed by the intrinsic (agonist) activity in parentheses, expressed as a percentage. [drawing 10]
# We have used canine saphenous vein for studying 5-HT1D receptors which is similar, although not totally identical, to human coronary 5-HT1D receptors (see Humphrey, P. P. A., Feniuk, W., Perren, M. J., Connor, H. E., Oxford, A. W., Coates, I. H. and Butina, D.: GR43175, a selective agonist for the 5-HT1 -like receptor in dog isolated saphenous vein, Br. J. Pharmacol. 94:1123-1132, 1988; Kaumann, A. J.: Human heart 5-HT receptors, Second international symposium on serotonin, from cell biology to pharmacology and therapeutics, Houston, Sep. 15-18, 1992).
# Mongrel dogs weighing 12-18 kg were killed by an intravenous injection of an overdose of sodium pentobarbitol. Saphenous veins were isolated, removed, cleaned of surrounding connective tissue, and cut into helical strips in a dish containing Krebs-Henseleit solution with the following composition in mM: NaCl, 110.0; KCl, 4.8; CaCl2, 2.5; KH2 PO4, 1.2; EDTA(NaEDTA), 0.027; and was constantly bubbled with 95% O2 -5% CO2. Unless otherwise specified, the endothelium of the […] was removed by rubbing with a metal rod. The intactness or absence of functional endothelium was checked by the presence or absence of a relaxant effect of acetycholine (10^-5 M) in phenylephrine-contracted tissues (see Furchgott, R. F. and Zawadzki, J. V.: The obligatory role of endothelial cells in the relaxtion of arterial smooth muscle by acetycholine, Nature 288:373-376, 1980). Each muscle strip (3×30 mm) was set up in a tissue bath at 37° C. and loaded with 2 gram tension. Contractility of the tissues was measured isometrically with a Grass FT03 force-displacement transducer and recorded on a Strip chart recorder. The tissues were allowed to stabilize for 2 hours before the experiment was started, during which time they were washed repeatedly. Tissues were contracted with 3.162×10^-6 M phenylephrine and 40 mM KCl, which produced 60-70% of their maximum contractile responses, to condition the tissue. 5-HT dose response experiment was conducted. Test compounds were then incubated with the tissue before a second 5-HT dose response experiment was performed. Data are expressed as the pA2 value, the negative logarithm of the molar concentration of antagonist which produced a 2 fold shift in ED50 values of 5-HT dose response curves (see Van Rossum, J. M.: Cumulative dose-response curve: Technique for the making of dose-response curves in isolated organs and the evaluation of drug parameters, Arch. Int. Pharmacodyn. Ther. 143:299-330, 1963).
# [5] = acetic acid writhing test (analgesic effect); type: in vivo; conditions: Mus musculus, sc, 0.5 h; mice, subcutaneous, 30 minutes before acetic acid i.p. (0.25% v/v, 0.4 ml)
# Protocol: Eide, Neuropharm. 31, 541 (1992). […] One such model is the acetic acid writhing test. In this test, a group containing from 5-10 mice are administered the test compound subcutaneously. Thirty minutes after administration of the test compound, the mice are administered acetic acid intraperitoneally (0.25 % v/v, 0.4 ml). The mice are then observed for squirming and writhing. Analgesics block this squirming and writhing.
# 5HT1D receptor = target: T2, 5HT1D receptor (Bos taurus, UniProt F1MGM3); test: 5HT1D receptor binding affinity (procedure of Peroutka et al.)
# T2 construct: from tissue
# Protocol: The compounds affinity for the 5HT1D site was determined by the binding procedure of Peroutka et al as reported in European Journal of Pharmacology, Vol. 163 at pages 133-166 (1989). […] Where multiple determinations of the binding affinity have been performed, the average is given followed by the number of determinations in parentheses.
# [6] = fear-potentiated startle test (anxiolytic activity); type: in vivo; conditions: rats
# Description: Animals were trained and tested for tear-potentiated startle in a modification of the methods reported in Hitchcock and Davis (1991). Briefly, rats first were given a matching session consisting of 30 startle stimuli. […] A training session took place one to two days later in which the rats were given 10 paired trials consisting of a visual conditioned stimulus (a light) immediately followed by an unconditioned stimulus (footshock). The test session took place two days later. The product of Example No. 15 was administered s.c. in the flank and fifteen minutes later, the rats were given startle stimuli in the absence of the conditioned stimulus (baseline startle measurement; Noise-Alone trials) or in the presence of the conditioned stimulus (fear-potentiated startle measurement; Light-Noise trials). Fear-potentiated startle was defined as higher startle in the presence of the conditioned fear stimulus than in its absence.
# Statistical analysis was done on the mean startle amplitudes on the Noise-Alone and Light-Noise trials, and the mean Difference scores (Light-Noise minus Noise-Alone means). One-way analysis of variance was run on the Difference scores and on the Noise-Alone scores. Multiple comparison test (Fisher PLSD) were used to compare each dose group to the vehicle control group.
# [7] = tested on: dorsal raphe nucleus neurons; conditions: Vandermaelen et al.; cited from earlier work
# [8] = early clinical trials; cited from earlier work
# [9] = Peroutka et al.; Saxena et al.; Hamel et al.; cited from earlier work
# T2 sequence (F1MGM3 1-403): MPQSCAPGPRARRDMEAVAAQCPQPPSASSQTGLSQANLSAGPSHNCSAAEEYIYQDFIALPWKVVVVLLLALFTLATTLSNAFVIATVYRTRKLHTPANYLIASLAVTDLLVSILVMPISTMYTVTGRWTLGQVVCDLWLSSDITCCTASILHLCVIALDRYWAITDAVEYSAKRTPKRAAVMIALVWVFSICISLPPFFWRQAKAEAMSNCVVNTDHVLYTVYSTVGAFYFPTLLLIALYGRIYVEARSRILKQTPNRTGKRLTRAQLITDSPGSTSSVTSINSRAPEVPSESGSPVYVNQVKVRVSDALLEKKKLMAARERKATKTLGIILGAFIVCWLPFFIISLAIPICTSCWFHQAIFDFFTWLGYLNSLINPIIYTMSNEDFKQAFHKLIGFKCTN
# Sequence of 5-HT1D receptors (P79250 whole entry): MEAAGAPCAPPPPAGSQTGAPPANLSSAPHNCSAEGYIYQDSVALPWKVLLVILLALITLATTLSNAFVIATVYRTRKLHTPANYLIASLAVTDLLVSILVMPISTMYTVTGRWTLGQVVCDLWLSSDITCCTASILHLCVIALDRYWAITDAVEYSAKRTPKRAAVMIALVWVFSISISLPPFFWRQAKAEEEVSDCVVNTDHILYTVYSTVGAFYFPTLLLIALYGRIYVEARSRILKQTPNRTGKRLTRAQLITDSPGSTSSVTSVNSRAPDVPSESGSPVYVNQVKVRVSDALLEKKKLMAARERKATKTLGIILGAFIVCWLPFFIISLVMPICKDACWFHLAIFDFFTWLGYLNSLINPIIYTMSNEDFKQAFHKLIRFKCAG
compound,measurement,setting,value
"CCCN(CCC)C1CCc2cccc(O)c2C1 (stereo not drawn) [8-OH DPAT, 8-hydroxy-2-(di-N-propylamino) tetralin]",effect in rodent models for depression,[1],effective in rodent models for depression
same,neuronal destruction in rodent models of stroke,[2],inhibited or decreased neuronal destruction
same,antihypertensive effect in rodent models,[3],effective for the treatment of hypertension in rodent models
same,analgesic effect,[4],effective as analgesics
CCCN(CCC)C1Cc2c[nH]c3ccc(OC)c(c23)C1.Cl (stereo not drawn) [Bay R 1531],neuronal destruction in rodent models of stroke,[2],inhibited or decreased neuronal destruction
"Cl.NC(=O)c1cc2c(N3CCN(CCc4ccccc4)CC3)cccc2s1 [Example 9, 4-[4-(2-phenylethyl)-1-piperazinyl]-benzo[b]thiophene-2-carboxamide monohydrochloride]",IC50,5HT1A receptor,0.5 nM
same,Kb,5-HT1D receptors,10.2 nM
same,ED50,[5],0.12 mg/kg
same,IC50,5HT1D receptor,1.6 nM
"OCc1cc2c(N3CCN(CCCc4ccccc4)CC3)cccc2s1 [Example 15, 4-[4-(3,phenylpropyl)-1-piperazinyl]-benzo[b]thiophene-2-methanol monohydrochloride]",IC50,"5HT1A receptor; average of multiple determinations where number in parentheses is given, read-out: IC50 (5HT1A Binding Affinity)",1.8 nM
same,ED50,[5],1.74 mg/kg
same,decrease of fear-potentiated startle,"[6]; doses of 2.5, 20.0, and 40.0 mg/kg s.c., p<.05 vs vehicle, Fisher PLSD",decreased fear-potentiated startle with statistically significant effects
same,anxiolytic activity in the fear-potentiated startle test,"[6]; s.c., 15 minutes before test",significant anxiolytic activity
same,baseline startle reflex (muscle relaxant activity),"[6]; s.c., Noise-Alone trials",did not decrease the baseline startle reflex
same,IC50,"5HT1D receptor; average of multiple determinations where number in parentheses is given, read-out: IC50 (5HT1D Binding Affinity)",23 nM
"Cl.NC(=O)c1cc2c(N3CCN(CCc4ccc(Cl)cc4)CC3)cccc2s1 [Example 21, 4-[4-[2-(4-chlorophenyl)ethyl]-1-piperazinyl]-benzo[b]thiophene-2-carboxamide monohydrochloride]",IC50,5HT1A receptor,2 nM
same,ED50,[5],0.05 mg/kg
same,IC50,5HT1D receptor,14 nM
"Cc1ccc(CCN2CCN(c3cccc4sc(C(N)=O)cc34)CC2)cc1 [Example 29, 4-[4-[2-(4-methylphenyl)ethyl]-1-perazinyl]-benzo[b]thiophene-2-carboxamide monohydrochloride]",IC50,5HT1A receptor,1 nM
same,ED50,[5],0.03 mg/kg
same,IC50,5HT1D receptor,3 nM
O=C1CC2(CCCC2)CC(=O)N1CCCCN1CCN(c2ncccn2)CC1 [buspirone],raphe cell firing,[7],inhibit raphe cell firing
O=C(NCCN1CCN(c2cccc3c2OC[C@H](CO)O3)CC1)c1ccc(F)cc1 [flesinoxan],antihypertensive effect in rodent models,[3],effective for the treatment of hypertension in rodent models
CC1(C)CC(=O)N(CCCCN2CCN(c3ncccn3)CC2)C(=O)C1 [gepirone],neuronal destruction in rodent models of stroke,[2],inhibited or decreased neuronal destruction
O=C1c2ccccc2S(=O)(=O)N1CCCCN1CCN(c2ncccn2)CC1 [ipsapirone],neuronal destruction in rodent models of stroke,[2],inhibited or decreased neuronal destruction
CNS(=O)(=O)Cc1ccc2[nH]cc(CCN(C)C)c2c1 [sumatriptan],termination of acute migraine attacks,[8],terminate acute migraine attacks in early clinical trials
same,antimigraine-like effects in animal models,[9],produce antimigraine-like effects in animal models
